Measured values from ChEMBL document CHEMBL5120769, “Sclerotiamides C-H, Notoamides from a Marine Gorgonian-Derived Fungus with Cytotoxic Activities” (J Nat Prod, 2022).
Active and inactive are the calls of the source. The calls are words filed in the database; no cut-off is given here.

Assays:
HepG2 = assay: Cytotoxicity against human HepG2 cells assessed as reduction in cell viability by MTT assay; format: functional, cell-based
A549 = assay: Cytotoxicity against human A549 cells assessed as reduction in cell viability by MTT assay; format: functional, cell-based
HeLa [1] = assay: Cytotoxicity against human HeLa cells assessed as reduction in cell viability by MTT assay; format: functional, cell-based
SMMC-7721 = assay: Cytotoxicity against human SMMC-7721 cells assessed as reduction in cell viability by MTT assay; format: functional, cell-based
HeLa [2] = assay: Activation of MAPK signalling pathway in human HeLa cells assessed as increase in ERK phosphorylation level at 1 to 10 uM after 24 hrs by western blot analysis; format: cell-based; conditions: filed as activator, dose 1-10 µM, DDE = dose-dependent effect
HeLa [3] = assay: Inhibition of colony formation in human HeLa cells assessed as reduction in cell colonies at 4 uM after 10 days by crystal violet staining based assay relative to control; format: functional; conditions: time 10.0 day, DDE = dose-dependent effect
HeLa [4] = assay: Induction of apoptosis in human HeLa cells assessed as decrease in Bcl-2 protein expression at 1 to 10 uM after 24 hrs by Western blot analysis; format: functional, cell-based; conditions: dose 1-10 µM, DDE = dose-dependent effect
HeLa [5] = assay: Induction of mitochondrial membrane potential loss in human HeLa cells at 1 to 10 uM after 24 hrs by JC1 staining based flow cytometric analysis; format: functional, cell-based; conditions: dose 1-10 µM
HeLa [6] = assay: Induction of ROS generation in human HeLa cells at 1 to 10 uM after 24 hrs by DCFH-DA staining based fluorescence microscopic assay; format: functional, cell-based; conditions: dose 1-10 µM
HeLa [7] = assay: Induction of cell cycle arrest in human HeLa cells assessed as accumulation at G2 phase at 1 to 5 uM after 24 hrs by Propidium iodide staining based flow cytometric analysis (reference value: 23%); format: functional; conditions: dose 1-5 µM
HeLa [8] = assay: Induction of apoptosis in human HeLa cells assessed as increase in cleaved PARP protein expression at 1 to 10 uM after 24 hrs by Western blot analysis; format: functional, cell-based; conditions: dose 1-10 µM, DDE = dose-dependent effect
HeLa [9] = assay: Activation of MAPK signalling pathway in human HeLa cells assessed as increase in p38 phosphorylation level at 1 to 10 uM after 24 hrs by western blot analysis; format: cell-based; conditions: filed as activator, dose 1-10 µM, DDE = dose-dependent effect
HeLa [10] = assay: Induction of apoptosis in human HeLa cells assessed as increase in p53 protein expression at 1 to 10 uM after 24 hrs by Western blot analysis; format: functional, cell-based; conditions: dose 1-10 µM, DDE = dose-dependent effect
HeLa [11] = assay: Induction of apoptosis in human HeLa cells assessed as increase in late apoptotic cells at 1 to 10 uM after 24 hrs by Annexin V staining based flow cytometric analysis; format: functional, cell-based; conditions: dose 1-10 µM
HeLa [12] = assay: Induction of apoptosis in human HeLa cells assessed as increase in Bax protein expression at 1 to 10 uM after 24 hrs by Western blot analysis; format: functional, cell-based; conditions: dose 1-10 µM, DDE = dose-dependent effect
HeLa [13] = assay: Induction of apoptosis in human HeLa cells assessed as increase in cytochrome C protein expression at 1 to 10 uM after 24 hrs by Western blot analysis; format: functional, cell-based; conditions: dose 1-10 µM, DDE = dose-dependent effect
HeLa [14] = assay: Induction of apoptosis in human HeLa cells assessed as increase in caspase 3 protein expression at 1 to 10 uM after 24 hrs by Western blot analysis; format: functional, cell-based; conditions: dose 1-10 µM, DDE = dose-dependent effect
HeLa [15] = assay: Induction of apoptosis in human HeLa cells assessed as increase in early apoptotic cells at 1 to 10 uM after 24 hrs by Annexin V staining based flow cytometric analysis; format: functional, cell-based; conditions: dose 1-10 µM
HeLa [16] = assay: Induction of apoptosis in human HeLa cells assessed as nuclear condensation at 1 to 10 uM after 24 hrs by Hoechst 33342 staining based fluorescence microscopic assay; format: functional, cell-based; conditions: dose 1-10 µM
HeLa [17] = assay: Activation of MAPK signalling pathway in human HeLa cells assessed as increase in JNK phosphorylation level at 1 to 10 uM after 24 hrs by western blot analysis; format: cell-based; conditions: filed as activator, dose 1-10 µM, DDE = dose-dependent effect

Work on `Cc1c(O)c(C)c2oc(=O)c3c(c2c1C)O[C@@]12C(=[N+]([O-])c4c1ccc1c4C=CC(C)(C)O1)C(C)(C)[C@@H]1C[C@]45CCCN4C(=O)[C@]1(NC5=O)[C@H]32` yielded an IC50 (HepG2) of 8.1 µM, an IC50 (A549) of 7.8 µM and an IC50 (HeLa [1]) of 7.9 µM. The IC50 (SMMC-7721) was 6.7 µM.
`CC(=O)O[C@H]1C(=O)[C@@]2(C)[C@H]([C@H](OC(=O)c3ccccc3)[C@]3(O)C[C@H](OC(=O)[C@H](O)[C@@H](NC(=O)c4ccccc4)c4ccccc4)C(C)=C1C3(C)C)[C@]1(OC(C)=O)CO[C@@H]1C[C@@H]2O` [PACLITAXEL] showed an IC50 (HepG2) of 0.06 µM, an IC50 (A549) of 0.05 µM and an IC50 (HeLa [1]) of 0.05 µM. The IC50 (SMMC-7721) was 0.07 µM.
`CC1(C)C=Cc2c(ccc3c2N2O[C@@H]4O[C@@]2(C3=O)C(C)(C)C2C[C@]35CCCN3C(=O)C24NC5=O)O1` (some centres undefined) was tested, and the IC50 (HepG2) was > 10 µM, the IC50 (A549) was > 10 µM and the IC50 (HeLa [1]) was > 10 µM. For the same compound, the IC50 (SMMC-7721) was > 10 µM.
In the case of `Cc1c(O)c(C)c2oc(=O)c(C3=C4C(=[N+]([O-])c5c4ccc4c5C=CC(C)(C)O4)C(C)(C)[C@@H]4C[C@]56CCCN5C(=O)[C@]34NC6=O)c(O)c2c1C`, the IC50 (HepG2) is reported as > 10 µM, the IC50 (A549) is reported as > 10 µM and the IC50 (HeLa [1]) is reported as > 10 µM. The IC50 (SMMC-7721) was > 10 µM.
In the case of `CC1(C)C=Cc2c(ccc3c4c(n(O)c23)C(C)(C)[C@@H]2C[C@]35CCCN3C(=O)[C@]23[C@H]4NC(C)(C)N3C5=O)O1`, the Activity (HeLa [2]) is reported as “Dde”, the inhibition (HeLa [3]) is reported as “Dde” and the Activity (HeLa [4]) is reported as “Dde”. For the same compound, the Activity (HeLa [5]) was “Active”, the IC50 (HepG2) was 1.8 µM and the Activity (HeLa [6]) was “Active”. For the same compound, the IC50 (A549) was 1.6 µM, the Activity (HeLa [7]) was 38% and the IC50 (HeLa [1]) was 1.7 µM. For the same compound, the Activity (HeLa [8]) was “Dde”, the Activity (HeLa [9]) was “Dde” and the Activity (HeLa [10]) was “Dde”. For the same compound, the Activity (HeLa [11]) was “Active”, the Activity (HeLa [12]) was “Dde” and the Activity (HeLa [13]) was “Dde”. The Activity (HeLa [14]) was “Dde”, the Activity (HeLa [15]) was “Active” and the IC50 (SMMC-7721) was 1.5 µM. The Activity (HeLa [16]) was “Active” and the Activity (HeLa [17]) was “Dde”.
In the case of `CC1(C)C=Cc2c(ccc3c2[N+]([O-])=C2C(C)(C)C4C[C@]56CCCN5C(=O)C4(NC6=O)[C@@H](O)[C@@]23O)O1` (some centres undefined), the IC50 (HepG2) is reported as > 10 µM, the IC50 (A549) is reported as > 10 µM and the IC50 (HeLa [1]) is reported as > 10 µM. For the same compound, the IC50 (SMMC-7721) was > 10 µM.
In the case of `CC1(C)C=Cc2c(ccc3c4c([nH]c23)C(C)(C)[C@@H]2C[C@]35CCCN3C(=O)[C@]23[C@H]4NC(C)(C)N3C5=O)O1`, the IC50 (HepG2) is reported as > 10 µM, the IC50 (A549) is reported as > 10 µM and the IC50 (HeLa [1]) is reported as > 10 µM. For the same compound, the IC50 (SMMC-7721) was > 10 µM.
